Laboratory results: US20100317515A1, “Azolylmethyloxiranes, use Thereof and Agents Containing the Same” (priority 2007, published 2010)
Like-named read-outs stand apart in the source and are kept apart here.

What was measured:
Phakopsora pachyrhizi = test: Curative activity against soybean rust caused by Phakopsora pachyrhizi (Phakpa K1); format: in vivo, Phakopsora pachyrhizi on soybean; settings: curative application, untreated 90%
Procedure: (§1) The active compounds were prepared separately or jointly as a stock solution comprising 25 mg of active compound which was made up to 10 ml using a mixture of acetone and/or DMSO and the emulsifier Uniperol® EL (wetting agent having emulsifying and dispersing action based on ethoxylated alkylphenols) in a volume ratio of solvent/emulsifier of 99:1. The mixture was then made up to 100 ml with water. This stock solution was diluted with the solvent/emulsifier/water mixture described to give the concentration of active compounds stated below. Alternatively, the active compounds were used as a commercial finished formulation and diluted with water to the concentration of active compounds stated.
Curative Activity Against Soybean Rust Caused by Phakopsora pachyrhizi (Phakpa K1)
Leaves of potted soybean seedlings were inoculated with a spore suspension of soybean rust (Phakopsora pachyrhizi). The pots were then placed in a chamber with high atmospheric humidity (90 to 95%) and at 23 to 27° C. for 24 hours. During this time, the spores germinated and the germ tubes penetrated into the leaf tissue. The infected plants were then sprayed to runoff point with the active compound solution described above at the active compound concentration stated below. After the spray coating had dried on, the test plants were cultivated in a greenhouse at temperatures between 23 and 27° C. and 60 to 80% relative atmospheric humidity for 14 days. The extent of the rust fungus development on the leaves was then determined visually in % infection.

Septoria tritici = test: Activity against the Septoria leaf spot pathogen Septoria tritici in the microtiter test (Septtr); format: cell-based
Alternaria solani = test: Activity against the early blight pathogen Alternaria solani in the microtiter test (Alteso); format: cell-based; settings: day 7, relative to active compound-free control (100%)
Puccinia recondita = test: Protective activity against Puccinia recondita on wheat (brown rust of wheat) (Puccrt P1); format: in vivo
Botrytis cinerea = test: Activity against gray mold on bell pepper leaves caused by Botrytis cinerea, 1 day protective application (Botrci P1); format: in vivo; settings: untreated 90%
Procedure: as §1
Activity Against Gray Mold on Bell Pepper Leaves Caused by Botrytis cinerea, 1 Day Protective Application (Botrci P1)
Bell pepper seedlings were, after 2-3 leaves were well developed, sprayed to runoff point with an aqueous suspension having the active compound concentration stated below. The next day, the treated plants were inoculated with a spore suspension of Botrytis cinerea in a 2% strength biomalt solution. The test plants were then placed in a dark climatized chamber at 22 to 24° C. and high atmospheric humidity. After 5 days, the extent of the fungal infection on the leaves could be determined visually in %.

Pyricularia oryzae = format: cell-based
Leptosphaeria nodorum = test: Activity against the leaf and glume blotch pathogen Leptosphaeria nodorum in the microtiter test (Leptno); format: cell-based
[1] = 31 ppm, microtiter test, day 7, relative to active compound-free control (100%)
[2] = 31 ppm, microtiter test, comparative experiments

Compound: CSc1ncnn1C[C@]1(c2ccc(F)cc2F)O[C@@H]1c1ccccc1F (relative stereo) [Example 8, 1-[rel-(2S,3R)-2-(2,4-difluorophenyl)-3-(2-fluorophenyl)oxiran-2-ylmethyl]-5-(methylthio)-1H-1,2,4-triazole]
- Infection in % at 600 ppm for Phakpa K1 (Phakopsora pachyrhizi): 1%

Compound: N#CSc1ncnn1C[C@]1(c2ccc(F)cc2F)O[C@@H]1c1ccccc1Cl (relative stereo) [Example 12, 1-[rel-(2S,3R)-3-(2-chlorophenyl)-2-(2,4-difluorophenyl)oxiran-2-ylmethyl]-5-thiocyanato-1H-1,2,4-triazole]
- Growth in % at 31 ppm for Septtr (Septoria tritici; [1]): 1%
- Growth in % at 31 ppm for Alteso (Alternaria solani): 43%

Compound: CC(=O)Sc1ncnn1C[C@]1(c2ccc(F)cc2F)O[C@@H]1c1ccccc1Cl (relative stereo) [Example 14, S-{2-[3-(2-chlorophenyl)-2-(2,4-difluorophenyl)oxiranylmethyl]-2H-[1,2,4]triazole-3-yl} rel-(2S,3R)thio acetate]
- Infection in % at 600 ppm for Puccrt P1 (Puccinia recondita; in vivo): 0%
- Infection in % at 600 ppm for Botrci P1 (Botrytis cinerea): 3%

Compound: CCOP(=S)(OCC)Sc1ncnn1C[C@]1(c2ccc(F)cc2F)O[C@@H]1c1ccccc1Cl (relative stereo) [Example 13, S-1-[rel-(2S,3R)-3-(2-chlorophenyl)-2-(2,4-difluorophenyl)oxiran-2-ylmethyl]-1H-1,2,4-triazol-5-yl O,O-diethyl phosphorodithioate]
- Growth in % at 31 ppm for Septtr (Septoria tritici): 4%

Compound: COC(=O)Sc1ncnn1CC1(c2ccc(F)cc2F)OC1c1ccccc1Cl (centres unmarked) [WO9742178, p. 55 (4th compound)]
- Growth in % at 31 ppm for Pyrior (Pyricularia oryzae; [2]): 94%

Compound: Fc1ccc([C@@]2(Cn3nc[nH]c3=S)O[C@@H]2c2ccccc2F)c(F)c1 (relative stereo) [Example 4, 1-[rel-(2S,3R)-2-(2,4-difluorophenyl)-3-(2-fluorophenyl)oxiran-2-ylmethyl]-1H-1,2,4-triazole-5(4H)-thione]
- Growth in % at 31 ppm for Pyrior (Pyricularia oryzae; [2]): 7%
- Growth in % at 31 ppm for Pyrior (Pyricularia oryzae; [1]): 7%

Compound: Fc1ccc([C@]2(Cn3cnc(S)n3)O[C@H]2c2ccccc2Cl)c(F)c1 (relative stereo) [Example 1, 1-[rel-(2R,3S)-3-(2-chlorophenyl)-2-(2,4-difluorophenyl)oxiranylmethyl]-1H-[1,2,4]triazole-3-thiol]
- Infection in % at 600 ppm for Puccrt P1 (Puccinia recondita; 600 ppm, protective spray 1 day before inoculation, wheat, untreated 90%): 0%
- Infection in % at 600 ppm for Botrci P1 (Botrytis cinerea): 7%

Compound: CSc1ncnn1C[C@]1(c2ccc(F)c(F)c2)O[C@@H]1c1ccccc1C(F)(F)F (relative stereo) [Example 9, 1-[rel-(2S,3R)-2-(3,4-difluorophenyl)-3-(2-(trifluoromethyl)phenyl)oxiran-2-ylmethyl]-5-(methylthio)-1H-1,2,4-triazole]
- Infection in % at 600 ppm for Phakpa K1 (Phakopsora pachyrhizi): 0%

Compound: S-{2-[3-(2-chlorophenyl)-2-(2,4-difluorophenyl)oxiranylmethyl]-2H-[1,2,4]triazole-3-yl}rel-(2S,3R)thio carbonate [Example 15]
- Growth in % at 31 ppm for Pyrior (Pyricularia oryzae): 64%

Compound: Fc1ccc([C@@]2(Cn3nc[nH]c3=S)O[C@@H]2c2ccccc2C(F)(F)F)cc1F (relative stereo) [Example 5, 1-[rel-(2S,3R)-2-(3,4-difluorophenyl)-3-(2-(trifluoromethyl)phenyl)oxiran-2-ylmethyl]-1H-1,2,4-triazole-5(4H)-thione]
- Infection in % at 300 ppm for Puccrt P1 (Puccinia recondita; 300 ppm, protective spray 1 day before inoculation, wheat, untreated 90%): 10%

Compound: Fc1ccc([C@@]2(Cn3ncnc3S)O[C@@H]2c2ccccc2F)cc1 [WO9638440, p. 9 (2nd compound)]
- Growth in % at 31 ppm for Pyrior (Pyricularia oryzae; [2]): 30%

Compound: Fc1ccc([C@@]2(Cn3nc[nH]c3=S)O[C@@H]2c2ccccc2Cl)cc1F (relative stereo) [Example 3, 1-[rel-(2S,3R)-3-(2-chlorophenyl)-2-(3,4-difluorophenyl)oxiran-2-ylmethyl]-1H-1,2,4-triazole-5(4-H)-thione]
- Growth in % at 31 ppm for Leptno (Leptosphaeria nodorum): 60%
- Infection in % at 600 ppm for Puccrt P1 (Puccinia recondita; in vivo): 0%

Compound: CSc1ncnn1C[C@]1(c2ccc(F)cc2F)O[C@@H]1c1ccccc1Cl (relative stereo) [Example 10, 1-[rel-(2S,3R)-3-(2-chlorophenyl)-2-(2,4-difluorophenyl)oxiran-2-ylmethyl]-5-(methylthio)-1H-1,2,4-triazole]
- Infection in % at 600 ppm for Phakpa K1 (Phakopsora pachyrhizi): 0%

Compound: Fc1ccc([C@@]2(Cn3ncnc3[S-])O[C@@H]2c2ccccc2Cl)c(F)c1.[Na+] (relative stereo) [Example 16, sodium rel-(2S,3R)-2-[3-(2-chlorophenyl)-2-(2,4-difluorophenyl)oxiranylmethyl]-2H-[1,2,4]triazole-3-thiolate]
- Growth in % at 31 ppm for Leptno (Leptosphaeria nodorum; [1]): 4%

Compound: Fc1ccc([C@@]2(Cn3nc[nH]c3=S)O[C@@H]2c2ccccc2Cl)cc1Br [WO9638440, p. 7 (2nd compound)]
- Growth in % at 31 ppm for Leptno (Leptosphaeria nodorum; [2]): 100%
